“And” between values parts separate entries of the source, which are not always exact repeats. Equal entries are not always repeated.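 Five concentrations, 48 hours, 96-well plates. GI50 marks 50% less growth. TGI: concentration producing complete growth inhibition.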
Columns and labels:
Experiment in all cases: NCI tumour cell line growth inhibition, 48 h
OVCAR-3 ovarian = system: OVCAR-3 ovarian
RPMI-8226 leukemia = system: RPMI-8226 leukemia
KM12 colon = system: KM12 colon
NCI-H23 lung = system: NCI-H23 lung
HOP-92 NSCLC = system: HOP-92 NSCLC
K-562 leukemia = system: K-562 leukemia
SW-620 colon = system: SW-620 colon
SNB-75 CNS = system: SNB-75 CNS
MDA-N = system: MDA-N
SK-MEL-28 melanoma = system: SK-MEL-28 melanoma

| Structure (SMILES) | GI50 (OVCAR-3 ovarian) [µM] | TGI (OVCAR-3 ovarian) [µM] | GI50 (RPMI-8226 leukemia) [µM] | TGI (RPMI-8226 leukemia) | GI50 (KM12 colon) [µM] | TGI (KM12 colon) [µM] | GI50 (NCI-H23 lung) [µM] | TGI (NCI-H23 lung) | GI50 (HOP-92 NSCLC) [µM] | TGI (HOP-92 NSCLC) [µM] | GI50 (K-562 leukemia) [µM] | TGI (K-562 leukemia) [µM] | GI50 (SW-620 colon) [µM] | GI50 (SNB-75 CNS) [µM] | TGI (SNB-75 CNS) [µM] | TGI (MDA-N) [µM] | TGI (SK-MEL-28 melanoma) [µM] | TGI (SW-620 colon) [µM] |
| --- | --- | --- | --- | --- | --- | --- | --- | --- | --- | --- | --- | --- | --- | --- | --- | --- | --- | --- |
| COc1ccc(CC2C(=O)NC(C)C(=O)N(C)C3Cc4ccc(cc4)Oc4cc(ccc4O)CC(C(=O)NC(C)C(=O)NC(C)C(=O)N2C)N(C)C3=O)cc1 (stereo not drawn) | 0.000244 | 0.0438 | < 0.0001 | 0.0327 µM and 0.0179 µM | < 0.0001 | 0.127 | < 0.0001 | 0.0293 µM and 0.0212 µM and 0.158 µM | 0.000108 | 0.000866 | < 0.0001 | 2.01 | 0.000157 | < 0.0001 | 0.0214 |  |  |  |
| Cn1c(=O)c2[nH]c(N/N=C3/SCC(=O)N3Cc3ccccc3)nc2n(C)c1=O |  | > 100 |  | > 100 µM |  | > 100 |  | > 100 µM |  | 87.7 |  | > 100 |  |  |  | 36.5 | > 100 |  |
| c1csc(-c2ccc(-c3ccc(-c4cccs4)s3)s2)c1 |  | > 100 |  | > 100 µM |  | > 100 |  | > 100 µM |  |  |  |  |  |  | > 100 | > 100 | > 100 | > 100 |
| CC(=O)Nc1ncc2c(n1)-c1ccccc1OC2 |  | > 100 |  | > 100 µM |  | > 100 |  | > 100 µM |  | > 100 |  |  |  |  | > 100 | > 100 |  | > 100 |
| COc1cc([C@@H]2c3cc4c(cc3[C@@H](Nc3ccc(Cl)cc3C(=O)c3ccccc3Cl)[C@H]3COC(=O)[C@H]23)OCO4)cc(OC)c1OC |  | 6.4 |  |  |  | 0.289 |  | > 53.8 µM |  |  |  | > 100 |  |  | > 100 |  | 34 | > 46.1 |
| CSc1s[s+]c(SC)c1-c1ccccc1 |  | 37.6 |  | 56.7 µM |  | 33.8 |  | 34.7 µM |  | 33.6 |  | 50.3 |  |  |  | 32.7 |  | 34.9 |
| COCCCN1C(=O)C2c3[nH]c4ccccc4c3C3CCC(C(C)(C)C)CC3C2C1=O (stereo not drawn) |  | 35.9 |  | 56.1 µM |  | 55.5 |  | 82.6 µM |  |  |  | > 10 |  |  | > 100 | > 100 | > 100 | > 100 |
| C=C1C(=O)C[C@@]23CCC[C@@]12CC(O)C3 (stereo partly drawn) |  | 33.7 |  | 61.3 µM |  | 51.3 |  | 53.8 µM |  | 42.1 |  | > 87 |  |  | 48.7 |  | 49.8 | 37.2 |
| C=CC1(CCC(Br)C(C)(C)Cl)CO1 (stereo not drawn) |  | > 10 |  | > 10 µM |  | > 10 |  |  |  | > 10 |  | > 10 |  |  | > 10 | > 10 | > 10 | > 10 |
| Cc1cnc2[nH]c(-c3ccccc3)cc(=O)c2c1 |  |  |  | > 8.62 µM |  | 13.9 |  | > 13.5 µM |  | > 42.2 |  |  |  |  | 82.8 | > 100 | > 100 | > 100 |
| Cc1nn(C(=O)c2ccccc2O)c2c1C(c1ccc(O)cc1)SC(N)=N2 (stereo not drawn) |  | > 6.89 |  | > 5.38 µM |  | > 10 |  | > 10 µM |  |  |  | > 3.53 |  |  | 8.56 | > 10 | > 10 | > 10 |

Reference: PubChem BioAssay (NCI)
